According to patent EP0067666A1, “Salts of antimicrobial naphthyridine and quinoline compounds and their production” (priority 1981, dated 1982):
Values after ≈ are worked out from the molar mass of the structure shown. Marks after values point to notes of the source that are not given here.

Key:
Type in all cases: physicochemical
[1] = 10x dilution of soluble forms with standard IV solutions (pH, precipitate); details: for Solution 1 ppt 24 hr / Solution 3 ppt 24 hr / Solution 2 ppt 24 hr / Solution 4 ppt 24 hr: precipitate at 24 hr; for Concen. of Cpd A: undiluted solution used for the 10x dilutions
Method: (§1) The amount of Compound A or Compound B calculated for selected concentrations was weighed into volumetric flasks. Equimolar quantities of combining acid, amino acid, or base were added either as solutions or in dry form. Deionized water was added to bring the volume to that desired for the preselected concentrations.. All flasks were sonicated for 15 minutes, allowed to stand at room temperature for 30 minutes, then filtered through a fine frit sintered glass funnel. After the pH of the filtrate was taken, suitable dilutions were made into 0.1N HCl for ultraviolet spectrophotometric assay of concentration. Ten fold dilutions of the original filtrates were made into standard I.V. solutions.

[2] = Solubility of lyophilized and crystalline solids; details: for pH of Solution Cryst.: crystalline solid
[3] = Solubility screening procedure (concentration and pH of filtrate); details: for Conc. of CPD A: compound A + equimolar acid; for Conc. of CPD A / Conc. of CPD B: amino acid or base in deionized water, room temperature, filtrate, UV assay; for pH of Solution: pH of the filtrate; for Conc. of CPD B: compound B + equimolar acid
Method: as §1

[4] = concentrated Cpd B solution (154-221 mg/ml) diluted 10x with 5% Dextrose
[5] = concentrated Cpd B solution (154-221 mg/ml) diluted 10x with 5% Dextrose + 0.9% NaCl
[6] = concentrated Cpd B solution (154-221 mg/ml) diluted 10x with Lactated Ringer's Solution
[7] = concentrated Cpd B solution (155-221 mg/ml) diluted 10x with 0.9% NaCl
[8] = concentrated Cpd B solution (155-221 mg/ml) diluted 10x with 0.9% NaCl, precipitate at 4 hr
[9] = concentrated Cpd B solution diluted 10x with 5% Dextrose + 0.9% NaCl, precipitate at 4 hr
[10] = concentrated Cpd B solution diluted 10x with 5% Dextrose + 0.9% NaCl
[11] = concentrated Cpd B solution diluted 10x with 5% Dextrose
[12] = concentrated Cpd B solution diluted 10x with Lactated Ringer's Solution
[13] = undiluted concentrated Cpd B solution used for the Solution 1 dilution
[14] = undiluted concentrated solution (at least 155 mg/ml) used for the Solution 1 dilution (for most salts for all four solutions)
[15] = Cpd A salt solution diluted 10x with 0.9% NaCl
[16] = Cpd A salt solution diluted 10x with 5% Dextrose
[17] = Cpd A salt solution diluted 10x with 5% Dextrose + 0.9% NaCl
[18] = Cpd A salt solution diluted 10x with Lactated Ringer's Solution
[19] = lyophilized solid, not necessarily maximum value
[20] = low-concentration Cpd B solution (26.2-52 mg/ml) diluted 10x with 0.9% NaCl

| SMILES | Solution 2 pH dil [1, 4] | Solution 3 pH dil [1, 5] | Solution 4 pH dil [1, 6] | Solution 1 pH dil [1, 7] | Solution 1 ppt 4 hr [1, 8] | Solution 1 ppt 24 hr [1, 7] | pH of Solution Cryst. ([2]; CPD B salt) | Solution 1 pH dil [1, 15] | Solution 1 ppt 24 hr [1, 15] | Solution 2 pH dil [1, 16] | Solution 3 pH dil [1, 17] | Solution 3 ppt 24 hr [1, 17] | Solution 2 ppt 24 hr [1, 16] | Solution 4 pH dil [1, 18] | Solution 4 ppt 24 hr [1, 18] | pH of Solut. ([1]; undiluted Cpd A solution) | Concen. of Cpd A [1] [µg/mL] | pH of Solution Cryst. ([2]; CPD A salt) | pH of Solution Lyo. ([2]; CPD A salt, lyophilized solid) | Conc. of CPD A mg/ml Lyo. [2, 19] [mg/mL] | other results |
| --- | --- | --- | --- | --- | --- | --- | --- | --- | --- | --- | --- | --- | --- | --- | --- | --- | --- | --- | --- | --- | --- |
| CCn1cc(C(=O)O)c(=O)c2cc(F)c(N3CCNCC3)nc21 [B D-Gluconic] | 4.5 | 4.8 | 4.6 | 4.6 | no | yes | 4.78 |  |  |  |  |  |  |  |  |  |  |  |  |  | Solution 3 ppt 4 hr [1, 9]: no; Solution 3 ppt 24 hr [1, 10]: yes; Solution 2 ppt 24 hr [1, 11]: no; Solution 4 ppt 24 hr [1, 12]: no; pH of Solut. [1, 13]: 4.6; Concen. of Cpd B [1, 14]: 168000 µg/mL; pH of Solution Lyo. ([2]; CPD B salt, lyophilized solid): 4.8 |
| CCn1cc(C(=O)O)c(=O)c2cc(F)c(N3CCNCC3)cc21 [A Lactic] |  |  |  |  |  |  |  | 4.3 | no | 4.8 | 4.2 | no | no | 4.5 | no | 4.17 | 193000 | 5.15 | 4.6 | 256 | Conc. of CPD A [3]: 198000 µg/mL; pH of Solution ([3]; CPD A solutions): 4.05 |
| CCn1cc(C(=O)O)c(=O)c2cc(F)c(N3CCNCC3)cc21 [A D-Gluconic] |  |  |  |  |  |  |  | 4.4 | no | 4.3 | 4.4 | no | no | 4.7 | no | 4.30 | 182000 | 4.83 | 5.1 | 255 |  |
| CCn1cc(C(=O)O)c(=O)c2cc(F)c(N3CCNCC3)cc21 [A L-Aspartic] |  |  |  |  |  |  |  | 5.05 | no | 4.83 | 4.84 | no | slight | 5.02 | no | 4.88 | 174000 | 4.8 | 4.5 | 256 | Conc. of CPD A [3]: 174000 µg/mL; pH of Solution ([3]; CPD A solutions): 4.88 |
| CCn1cc(C(=O)O)c(=O)c2cc(F)c(N3CCNCC3)nc21 [B Methane Sulphonic] | 3.2 | 2.8 | 4.2 | 2.3 | yes | yes | 3.15 |  |  |  |  |  |  |  |  |  |  |  |  |  | Solution 3 ppt 4 hr [1, 9]: yes; Solution 3 ppt 24 hr [1, 10]: yes; Solution 2 ppt 4 hr ([1]; concentrated Cpd B solution diluted 10x with 5% Dextrose, precipitate at 4 hr): hazy; Solution 2 ppt 24 hr [1, 11]: hazy; Solution 4 ppt 4 hr ([1]; concentrated Cpd B solution diluted 10x with Lactated Ringer's Solution, precipitate at 4 hr): yes; Solution 4 ppt 24 hr [1, 12]: yes; Solution 1 pH dil [1, 20]: 4.47; Solution 1 ppt 24 hr [1, 20]: no; pH of Solut. [1, 13]: 1.38; Concen. of Cpd B [1, 14]: 178000 µg/mL; pH of Solut. ([1]; undiluted low-concentration Cpd B solution (26.2-52 mg/ml)): 5.07; Concen. of Cpd B ([1]; undiluted low-concentration solution (26.2-52 mg/ml), diluted with Solution 1 only): 26200 µg/mL; pH of Solution Lyo. ([2]; CPD B salt, lyophilized solid): 1.8; solubility ([2]; lyophilized solid, not necessarily maximum value, read-out: Conc. of CPD B mg/ml Lyo.): 200 mg/mL (≈ 624 mM); Conc. of CPD B [3]: 211000 µg/mL; pH of Solution ([3]; CPD B solutions): 1.67^c |
| CCn1cc(C(=O)O)c(=O)c2cc(F)c(N3CCNCC3)nc21 [B Hydrochloric] |  |  |  |  |  |  | 3 |  |  |  |  |  |  |  |  |  |  |  |  |  | Conc. of CPD B [3]: 7000 µg/mL; pH of Solution ([3]; CPD B solutions): 1.83^c |
